Patent US6632832B1 (Dabur Research Foundation, priority 2002, dated 2003)
Converted amounts (≈) assume the structure as drawn.

How the values were obtained:
B16F10 (melanoma) = test: MTT cytotoxicity assay, 72 hours; assay type: cell-based, human; conditions: 72 h MTT
Method: (§1) After 72 hours, the assay was terminated and percent cyotoxicities calculated.

HBL100 (breast) = test: MTT cytotoxicity assay, 72 hours; assay type: cell-based, human; conditions: 72 h MTT
Method: as §1

KB (oral) = test: MTT cytotoxicity assay, 72 hours; assay type: cell-based, human; conditions: 72 h MTT
Method: as §1

L132 (lung) = test: MTT cytotoxicity assay, 72 hours; assay type: cell-based, human; conditions: 72 h MTT
Method: as §1

MOLT4 (leukemia) = test: MTT cytotoxicity assay, 72 hours; assay type: cell-based, human; conditions: MOLT-4 (Leukemia), 72 h MTT, Table 2
Method: as §1

MiaPaCa.2 (pancreas) = test: MTT cytotoxicity assay, 72 hours; assay type: cell-based, human; conditions: 72 h MTT
Method: as §1

PA1 (ovary) = test: MTT cytotoxicity assay, 72 hours; assay type: cell-based, human; conditions: 72 h MTT
Method: as §1

PTC (colon) = test: MTT cytotoxicity assay, 72 hours; assay type: cell-based, human; conditions: 72 h MTT
Method: as §1

U87.MG (glioblastoma) = test: MTT cytotoxicity assay, 72 hours; assay type: cell-based, human; conditions: 72 h MTT
Method: as §1

DU145 (prostate) = test: MTT cytotoxicity assay, 72 hours; assay type: cell-based, human; conditions: 72 h MTT
Method: as §1

[1] = system: Human Colon, Ovary, melanoma, Leukemia, Glioblastoma, Prostate, oral and Lung tumor cell lines; test: MTT cytotoxicity assay, summary over the tumor cell line panel; assay type: cell-based
Method: as §1

[2] = system: EGF dependent proliferation in human pancreatic cancer cells (MiaPaCa2); test: EGF dependent proliferation, percent viable cells by MTT in sera free conditions; assay type: cell-based; design: dose or concentration left out as unconfirmed; conditions: Carvedilol for 16 hours, then varying EGF for 48 hours
Method: (§2) Briefly, 10000 human pancreatic cancer cells (MiaPaCa2) were seeded per well in a 96-well culture plate in DMEM containing 5% FCS. All experiments were carried out in triplicates at 37° C. in a CO2 incubator. The cells were incubated for a period of 12 hours, washed once with PBS and the medium was changed to DMEM without Fetal calf serum (FCS). […] The untreated control cells were treated with 1% DMSO in DMEM. The cells were washed with PBS and incubated with varying concentrations of EGF in DMEM without FCS for a period of 48 hours. The percent viable cells in absence and presence of Carvedilol was determined in an MTT assay in vitro.

[3] = system: PDGF dependent proliferation in human pancreatic cancer cells (MiaPaCa2); test: PDGF dependent proliferation, percent viable cells by MTT in sera free conditions; assay type: cell-based; conditions: Carvedilol 20 ug/ml for 16 hours, then varying PDGF for 48 hours
Method: as §2, with “fetal calf serum (FCS).” for “FCS.”, “FCS.” for “Fetal calf serum (FCS).”, “The cells were washed with PBS and incubated with varying concentrations of EGF in DMEM without FCS for a period of 48 hours.” left out

[4] = system: human pancreatic cancer cells (MiaPaCa2); test: Cytotoxicity abrogation assay with intracellular blocking of PKC by Bisindolylmaleimide; assay type: cell-based
Method: (§3) Briefly, 10000 human pancreatic cancer cells (MiaPaCa2) were seeded per well in a 96-well culture plate in DMEM containing 5% FCS. All experiments were carried out in triplicate at 37° C. in CO2 incubator. The plates were incubated overnight to allow complete reattachment of the cells. Subsequently, the medium was replaced with DMEM. The cells were incubated with varying concentrations of Bisindolylmaleimide, the specific inhibitor of PKC for a period of three hours. Bisindolylmaleimide was dissolved in 1% DMSO The control cells were treated with 1% DMSO. The cells were washed with PBS, and the medium was changed to fresh DMEM.

[5] = system: human pancreatic cancer cells (MiaPaCa2); test: Cytotoxicity abrogation assay with intracellular blocking of PI3 kinase by Wortmannin; assay type: cell-based
Method: as §3, with “of Wortmannin,the” for “of Bisindolylmaleimide, the”, “of PI3 kinase” for “of PKC”, “hours. Wortmannin” for “hours. Bisindolylmaleimide”, “in 0.5% DMSO.” for “in 1% DMSO”, “with 0.5%” for “with 1%”

Protein Kinase C (PKC) = test: PKC activity ELISA on lysates of treated MiaPaCa2 cells; assay type: cell-based, human; conditions: 5-100 ug/ml for 15 minutes
Method: Briefly 0.5×10^6 cells of human pancreatic cancer cells (MiaPaCa2) were plated per well in 6 well tissue culture plates in 2 ml of DMEM containing 10% Fetal calf serum. The cells were incubated overnight at 37° C. and 5% CO2. The medium was changed to DMEM without serum. […] The control cells were treated with 1% DMSO in DMEM. […] The cells were scraped with sterile cell scrapers, and spun at 1500 rpm for 5 minutes. The cell pellet was dissolved in 1 ml of ice cold sample preparation buffer (50 mM Tris-HCl, 50 mM 2-mercaptoethanol, 10 mM EGTA, 5 mM EDTA, 1 mM PMSF, 10 mM Benzamidine, pH 7.5). The cell pellets were sonicated four to five times each with time intervals of 5-10 seconds. The cells were centrifuged at 100,000×g for a period of 60 minutes at 4° C. The supernatant was aspirated from each set of experiments. The reaction mixture for quantitation of the PKC activity contained 25 mM Tris-HCl (pH7.0), 3 mM Mgc12, 0.1 mM ATP, 2 mM CaCl2, 50 ug/ml Phosphatidylserine, 0.5 mM EDTA, 1 mM EGTA, and 5 mM 2 mercaptoethanol. The lysates from the cells not treated with Carvedilol were the control experiments. The reaction mixture was preincubated for 5 minutes at 25° C. […] The optical density was read at 492 nm, and the PKC activity expressed as percent of that in control cells.

Cyclooxygenase 2 enzyme = test: COX2 activity by PGE2 quantitation in MiaPaCa2 cells; assay type: cell-based, human
Method: 1×10^6 human pancreatic cancer cells (MiaPaCa2) were plated in 6 well plates in RPMI containing 10% FCS. The cells were incubated for a period of 24 hours at 37° C. in 5% CO2. The medium was changed to DMEM without serum. […] All experiments were carried out in duplicates. […] The medium was aspirated to remove Bisindolemaleimide, and the cells were washed twice with PBS. […] The cells were incubated at 37° C. for one hour. Indomethacin at a concentration of 10 ug/ml was added to the wells to block the COX enzyme. […] The cells were lysed (2.5% dodecyltrimethylammonium) and incubated for 10 minutes at room temperature. The cell lysates were transferred to microtitre plate coated with goat anti mouse Ig coated plate. 50 microliter of PGE2 standards ranging from 2.5 to 320 pg/ml were added to the microtitre plate in duplicates. 50 microliter of mouse anti PGE2 and 50 microliter of PGE2 conjugated peroxidase was added to the wells. The plate was covered and incubated at room temperature for one hour on a microtitre plate shaker. The wells were aspirated and washed 4 times with suitable was buffer. 150 microlire of enzyme substrate was added to all the wells. […] The OD was read at 450 nm.
The levels of secreted and intracellular PGE2 were quantitated in cells treated with or without bisindolemaleimide.

[6] = system: B16F10 melanoma tumor xenografts; test: B16F10 melanoma xenograft model in nude mice; assay type: in vivo, Balb/c athymic mice; conditions: for tumor inhibition based on tumor volumes compared with untreated controls: oral gavage once a day, Day 19
Method: Melanoma tumor xenografts were initiated in Balb/c athymic mice by subcutaneous inoculation of a single cell suspension of B16F10 cells (10×10^6 cells/100 μL). The tumor-bearing mice were divided into three groups of 4 animals each. […] The third group served as control. […] The anti-tumor activity was monitored by measuring the tumors using a vernier caliper every fourth day and calculating volumes using the formula 0.4×W^2×L(W=smaller dia, L=larger dia,).

Acute toxicity in mice = assay type: in vivo; conditions: Swiss albino mice weighing 25 grams, observed for two weeks
Method: Acute toxicity studies were performed using two preferred routes of administration: intravenous and oral administration.

β-receptor = conditions: preclinical studies; cited from earlier work

COc1ccccc1OCCNC[C@@H](O)COc1cccc2[nH]c3ccccc3c12 (single isomer, unassigned) [R(+) isomer]
ED50 (B16F10 (melanoma); B16.F10 (Melanoma), Table 2): 10.5 ± 1.6 µg/mL (≈ 25.8 µM)
ED50 (HBL100 (breast); HBL100 (Breast), Table 2): 32.8 ± 3.7 µg/mL (≈ 80.7 µM)
ED50 (KB (oral); KB (Oral), Table 2): 12.0 ± 2.6 µg/mL (≈ 29.5 µM)
ED50 (L132 (lung); L132 (Lung), Table 2): 16.0 ± 3.1 µg/mL (≈ 39.4 µM)
ED50 (MOLT4 (leukemia)): 12.0 ± 1.6 µg/mL (≈ 29.5 µM)
ED50 (MiaPaCa.2 (pancreas); MiaPaCa.2 (Pancreas), Table 2): 27.0 ± 2.7 µg/mL (≈ 66.4 µM)
ED50 (PA1 (ovary); PA-1 (Ovary), Table 2): 10.0 ± 1.5 µg/mL (≈ 24.6 µM)
ED50 (PTC (colon); PTC (Colon), Table 2): 7.0 ± 0.4 µg/mL (≈ 17.2 µM)
ED50 (U87.MG (glioblastoma); U87MG (Glioblastoma), Table 2): 14.5 ± 2.9 µg/mL (≈ 35.7 µM)

COc1ccccc1OCCNCC(O)COc1cccc2[nH]c3ccccc3c12 (racemic) [Carvedilol, (±)-1-(carbazol-4-yloxy)-3-[(2-(o-methoxyphenoxy)ethyl]amino]-2-propanol]
ED50 (B16F10 (melanoma); B16.F10 (Melanoma), Table 2): 10.5 ± 1.7 µg/mL (≈ 25.8 µM)
ED50 (B16F10 (melanoma); B16F10 (melanoma)): 10.5 ± 1.7 µg/mL (≈ 25.8 µM)
ED50 (DU145 (prostate)): 9.0 ± 0.9 µg/mL (≈ 22.1 µM)
ED50 (HBL100 (breast); HBL100 (Breast), Table 2): 29.0 ± 4.2 µg/mL (≈ 71.3 µM)
ED50 (HBL100 (breast); HBL100 (breast)): 29.0 ± 4.2 µg/mL (≈ 71.3 µM)
ED50 (KB (oral); KB (Oral), Table 2): 12.0 ± 1.8 µg/mL (≈ 29.5 µM)
ED50 (KB (oral); KB (oral)): 12.0 ± 1.8 µg/mL (≈ 29.5 µM)
ED50 (L132 (lung); L132 (Lung), Table 2): 16.0 ± 3.1 µg/mL (≈ 39.4 µM)
ED50 (L132 (lung); L132 (lung)): 16.0 ± 3.1 µg/mL (≈ 39.4 µM)
ED50 (MiaPaCa.2 (pancreas); MiaPaCa.2 (Pancreas), Table 2): 33.0 ± 4.6 µg/mL (≈ 81.2 µM)
ED50 (MiaPaCa.2 (pancreas); MiaPaCa.2 (pancreas)): 33.0 ± 4.6 µg/mL (≈ 81.2 µM)
ED50 (PA1 (ovary); PA1 (ovary)): 11.5 ± 2.1 µg/mL (≈ 28.3 µM)
ED50 (PA1 (ovary); PA-1 (Ovary), Table 2): 11.5 ± 2.1 µg/mL (≈ 28.3 µM)
ED50 (PTC (colon); PTC (Colon), Table 2): 7.0 ± 0.7 µg/mL (≈ 17.2 µM)
ED50 (PTC (colon); PTC (colon)): 7.0 ± 0.7 µg/mL (≈ 17.2 µM)
ED50 (U87.MG (glioblastoma); U87.MG (glioblastoma)): 14.5 ± 2.2 µg/mL (≈ 35.7 µM)
ED50 (U87.MG (glioblastoma); U87MG (Glioblastoma), Table 2): 14.5 ± 2.2 µg/mL (≈ 35.7 µM)
cytotoxicity at a fixed concentration (FIG. 1) ([1]; 20 μg/ml, all of the above-mentioned tumor cell lines, except oral): high cytotoxicity effect
ED50 values ([1]; Colon, Ovary, melanoma, Leukemia, Glioblastoma, Prostate, oral and Lung tumor cell lines): less than 20 μg/ml
effect on EGF dependent proliferation (FIG. 2) [2]: inhibits the EGF dependent proliferation in pancreatic cancer cells in a dose dependent manner
effect on PDGF dependent proliferation (FIG. 3) [3]: inhibits the PDGF dependent proliferation in human pancreatic cancer cells in a dose dependent manner
cytotoxicity at 20 µg/mL ([4]; MIA PaCa-2, 48 h, read-out: % Cytotoxicity of Carvedilol (20 ug/ml), MiaPaCa2, 48 hours, Bisindolemaleimide Nil): 50%
cytotoxicity at 20 µg/mL ([4]; MIA PaCa-2, read-out: % Cytotoxicity of Carvedilol (20 ug/ml), MiaPaCa2, 48 hours, preincubated with Bisindolemaleimide 1.0 uM): 22%
cytotoxicity at 20 µg/mL ([4]; MIA PaCa-2, read-out: % Cytotoxicity of Carvedilol (20 ug/ml), MiaPaCa2, 48 hours, preincubated with Bisindolemaleimide 2.5 uM): 20%
cytotoxicity at 20 µg/mL ([4]; MIA PaCa-2, read-out: % Cytotoxicity of Carvedilol (20 ug/ml), MiaPaCa2, 48 hours, preincubated with Bisindolemaleimide 5.0 uM): 20%
cytotoxicity at 20 µg/mL ([5]; MIA PaCa-2, 48 h, read-out: % Cytotoxicity of Carvedilol (20 ug/ml), MiaPaCa2, 48 hours, Wortamannin Nil): 50%
cytotoxicity at 20 µg/mL ([5]; MIA PaCa-2, read-out: % Cytotoxicity of Carvedilol (20 ug/ml), MiaPaCa2, 48 hours, preincubated with Wortamannin 0.5 nM): 22%
cytotoxicity at 20 µg/mL ([5]; MIA PaCa-2, read-out: % Cytotoxicity of Carvedilol (20 ug/ml), MiaPaCa2, 48 hours, preincubated with Wortamannin 1.0 nM): 20%
cytotoxicity at 20 µg/mL ([5]; MIA PaCa-2, read-out: % Cytotoxicity of Carvedilol (20 ug/ml), MiaPaCa2, 48 hours, preincubated with Wortamannin 1.5 nM): 19%
cytotoxicity at 20 µg/mL ([5]; MIA PaCa-2, read-out: % Cytotoxicity of Carvedilol (20 ug/ml), MiaPaCa2, 48 hours, preincubated with Wortamannin 2.0 nM): 18%
effect on PKC activity (FIG. 4) (Protein Kinase C (PKC)): inhibits the PKC activity in a dose dependent manner
effect on COX2 activity (FIG. 5) (Cyclooxygenase 2 enzyme; MiaPaCa2, 10 ug/ml and 20 ug/ml for 4 hours, secreted and intracellular PGE2): inhibits the COX2 activity
effect on COX 2 activity after blocking of PKC (Cyclooxygenase 2 enzyme; MiaPaCa2 preincubated with Bisindolemaleimide (1 uM) for 4 hours): abrogates the effect of Carvedilol on COX 2 activity
tumor inhibition based on tumor volumes compared with untreated controls ([6]; 300 ug/day): 37.3%
tumor inhibition based on tumor volumes compared with untreated controls ([6]; 600 ug/day): 59.1%
pattern of tumor growth (FIG. 6) ([6]; both doses (300 and 600 ug/day oral)): delayed tumor growth and tumor regression
safe dose (Acute toxicity in mice; i.v.): 0.15 mg
safe dose (Acute toxicity in mice; oral): 3 mg

COc1ccccc1OCCNC[C@H](O)COc1cccc2[nH]c3ccccc3c12 (single isomer, unassigned) [S(−) isomer]
ED50 (B16F10 (melanoma); B16.F10 (Melanoma), Table 2): 11.4 ± 2.1 µg/mL (≈ 28 µM)
ED50 (HBL100 (breast); HBL100 (Breast), Table 2): 33.5 ± 4.2 µg/mL (≈ 82.4 µM)
ED50 (KB (oral); KB (Oral), Table 2): 19.0 ± 3.4 µg/mL (≈ 46.7 µM)
ED50 (L132 (lung); L132 (Lung), Table 2): 22.6 ± 3.8 µg/mL (≈ 55.6 µM)
ED50 (MOLT4 (leukemia)): 17.0 ± 2.5 µg/mL (≈ 41.8 µM)
ED50 (MiaPaCa.2 (pancreas); MiaPaCa.2 (Pancreas), Table 2): 33.0 ± 3.9 µg/mL (≈ 81.2 µM)
ED50 (PA1 (ovary); PA-1 (Ovary), Table 2): 13.0 ± 1.3 µg/mL (≈ 32 µM)
ED50 (PTC (colon); PTC (Colon), Table 2): 7.5 ± 0.4 µg/mL (≈ 18.5 µM)
ED50 (U87.MG (glioblastoma); U87MG (Glioblastoma), Table 2): 18.5 ± 2.1 µg/mL (≈ 45.5 µM)

COc1cc(O)ccc1OCCNCC(O)COc1cccc2[nH]c3ccccc3c12 (stereo not drawn) [4′-hydroxyphenyl metabolite]
potency for β-blockade relative to carvedilol (β-receptor): approximately 13 times
